Reference: patent EP2198709A1, “Method for treating resistant animal pests” (Bayer CropScience AG, priority 2008, dated 2010)

Legend:
Format in all cases: in vivo
[1] = system: Nymphen von Bemisia tabaci; assay: Field trial on aubergine plants, drench, against nymphs of neonicotinoid-resistant whiteflies (Almeria); details: drenched 3x, 150 g ai/ha/m CH, I-5 SL 300, Imidacloprid SL 200
From the text: In Almeria (Südspanien) wurden Auberginenpflanzen, die stark mit Nymphen von bekanntermaßen Neonikotinoyl-resistenten weißen Fliegen (Bemisia tabaci) infiziert waren, jeweils drei Mal im Abstand von 9 und 12 Tagen mit der Verbindung I-5 (SL 300, 150 g ai/ha/m CH (g aktive Substanz/ha/m CH, CH = Laubwand-Höhe) bzw. mit Imidacloprid (SL 200, 150 g ai/ha/m CH) gegossen. Zu verschiedenen Zeitpunkten nach der dritten Behandlung (DAC = Tage nach 3. Behandlung) wurde die Wirksamkeit (in % Abbott: Verhältnis der Anzahl Nymphen auf behandelter Pflanze / Fläche zur Anzahl Nymphen auf Kontrolle) der beiden Substanzen gegen Nymphen von Bemisia tabaci in bestimmt.

[2] = system: Nymphen von Bemisia tabaci; assay: Field trial on cotton plants, spray, against nymphs of neonicotinoid-resistant whiteflies (Brenes); details: sprayed 2x, 150 g ai/ha/m CH, I-5 SL 100, Imidacloprid SL 200
From the text: In Brenes (Spanien) wurden Baumwollpflanzen, die stark mit Nymphen von bekanntermaßen Neonikotinoyl-resistenten Weißen Fliegen (Bemisia tabaci) infiziert waren, jeweils zwei Mal im Abstand von 13 Tagen mit der Verbindung I-5 (SL 100, 150 g ai/ha/m CH (g aktive Substanz/ha/m CH, CH = Laubwand-Höhe) bzw. mit Imidacloprid (SL 200, 150 g ai/ha/m CH) besprüht. Zu verschiedenen Zeitpunkten nach der ersten bzw. zweiten Behandlung (DAA = Tage nach 1. Behandlung, DAB = Tage nach zweiter Behandlung) wurde die Wirksamkeit (in % Abbott: Verhältnis der Anzahl Nymphen auf behandelter Pflanze / Fläche zur Anzahl Nymphen auf Kontrolle) der beiden Substanzen gegen Nymphen von Bemisia tabaci in bestimmt.

[3] = system: Nymphen von Bemisia argentifolii; assay: Field trial on melon plants, spray, against nymphs of neonicotinoid-resistant silverleaf whiteflies (Arizona); details: 150 g ai/ha/m CH, SL 100, Imidacloprid SC 192
From the text: In Arizona (USA) wurden Melonenpflanzen, die stark mit Nymphen von bekanntermaßen Neonikotinoyl-resistenten Silberflügeligen Weißen Fliegen (Bemisia argentifolii) infiziert waren, jeweils zwei Mal im Abstand von 15 Tagen mit der Verbindung 1-5 (SL 100, 150 g ai/ha/m CH (g aktive Substanz/ha/m CH, CH = Laubwand-Höhe) bzw. mit Imidacloprid (SC 192, 150 g ai/ha/m CH) besprüht. Zu verschiedenen Zeitpunkten nach der ersten bzw. zweiten Behandlung (DAA = Tage nach 1. Behandlung, DAB = Tage nach zweiter Behandlung) wurde die Wirksamkeit (in % Abbott: Verhältnis der Anzahl Nymphen auf behandelter Pflanze / Fläche zur Anzahl Nymphen auf Kontrolle) der beiden Substanzen gegen Nymphen von Bemisia argentifolii bestimmt.

Bemisia tabaci ESP-00 = assay: Leaf-dip bioassay, adult whiteflies, multi-resistant strain ESP-00; details: adults; for ESP-00 LC50: multi-resistant strain ESP-00, mortality after 72 h
From the text: Es wurden Versuche durchgeführt, um die überlegene Blattwirkung von Enaminocarbonylverbindungen gegen adulte Tiere eines Stamms von Bemisia tabaci zu zeigen, der bekanntermaßen resistent ist gegen Neonikotinoid-Insektizide sowie andere Insektizidklassen, einschließlich Insekten-Wachstumsregulatoren (wie Buprofezin) und Antifeedants (Substanzen, die einen Schaderreger vom Fraß abhalten) (wie Pymetrozin).
Baumwollblattscheiben (30 mm im Durchmesser) wurden für 5 sec in wässrige Lösungen technischer Insektizide, enthaltend 0,2 g/l Triton-X-100 als nicht-ionisches Benetzungsmittel, getaucht. Luftgetrocknete Blattscheiben wurden dann mit der adaxialen Seite nach unten auf ein Agarbett (12 g/l) in einer kleinen Petrischale (40 mm im Durchmesser) gelegt. Adulte Weiße Fliegen wurden mittels eines Vakuum-getriebenen Aspirators aus Aufzuchtkäfigen eingesammelt und 20 adulte Tiere wurden nach kurzer CO2-Narkose auf die Blattscheiben gelegt. Anschließend wurde jede Petrischale mit einem belüfteten Deckel verschlossen und umgedreht aufbewahrt. Nach 72 h wurde die Mortalität der Weißen Fliegen bestimmt. Jedes Insektizid wurde mindestens dreifach mit 2-oder 3-fach Bestimmungen pro Konzentration getestet.
LC50-Werte wurden aus Probit-Regressionen unter Verwendung des Computerprogramms POLO-PC 2 (LeOra Software, Berkeley, USA) berechnet.
Tabelle 1. Log-Dosis Probit Mortalitätsdaten für verschiedene Klassen von Insektiziden erhalten aus Blatt-Tauch-Bioassays gegen adulte Tiere zweier Bemisia tabaci Stämme, SUD-S und ESP-00, die bekanntermaßen Insektizid-empfindlich (SUD-S) bzw. multiresistent (ESP-00) sind (Stumpf und Nauen, 2003). Mortalität wurde nach 72 h bestimmt, mit Ausnahme von Buprofezin (10-12 d).

SMILES: O=C1C=C(N(Cc2ccc(Cl)nc2)CC(F)F)CO1 [Verbindung I-5, 4-{[(6-Chlorpyrid-3-yl)methyl](2,2-difluorethyl)amino}furan-2(5H)-on]
- Effizienz ([1]; 7 DAC): 79,1 % Abbott
- Effizienz ([1]; 14 DAC): 63,7 % Abbott
- Effizienz ([1]; 21 DAC): 66,8 % Abbott
- Effizienz ([2]; 13 DAB): 78,9 % Abbott
- Effizienz ([2]; 15 DAB): 63,5 % Abbott
- Effizienz ([2]; 25 DAB): 77,8 % Abbott
- Effizienz ([2]; 36 DAB): 70,8 % Abbott
- Effizienz ([3]; 7 DAB, sprayed 2x): 55,4 % Abbott
- Effizienz ([3]; 8 DAA, sprayed): 86,8 % Abbott
- Effizienz ([3]; 13 DAB, sprayed 2x): 80,9 % Abbott
- Effizienz ([3]; 14 DAA, sprayed): 84,6 % Abbott
- Resistenz / Kreuz-resistenz von adulten B. tabaci Tieren des Stamms ESP-00 im Vergleich zu SUD-S (Bemisia tabaci ESP-00; leaf-dip, result in words): nur geringfügige Kreuz-resistenz
- ESP-00 LC50 (Bemisia tabaci ESP-00): 36 ppm

SMILES: O=[N+]([O-])NC1=NCCN1Cc1ccc(Cl)nc1 [Imidacloprid]
- Effizienz ([1]; 7 DAC): 41 % Abbott
- Effizienz ([1]; 14 DAC): 50,7 % Abbott
- Effizienz ([1]; 21 DAC): 21 % Abbott
- Effizienz ([2]; 13 DAB): 60 % Abbott
- Effizienz ([2]; 15 DAB): 56,9 % Abbott
- Effizienz ([2]; 25 DAB): 42,1 % Abbott
- Effizienz ([2]; 36 DAB): 24,3 % Abbott
- Effizienz ([3]; 7 DAB, sprayed 2x): 36,1 % Abbott
- Effizienz ([3]; 8 DAA, sprayed): 53,1 % Abbott
- Effizienz ([3]; 13 DAB, sprayed 2x): 31,9 % Abbott
- Effizienz ([3]; 14 DAA, sprayed): 47,6 % Abbott
- ESP-00 LC50 (Bemisia tabaci ESP-00): 300 ppm
